14 molecules from PubChem BioAssay (NCI) can be followed below.

Test in all cases: NCI anticancer screen, dose series, 48 h
For test [1], the system named is SK-MEL-28 melanoma.
Test [2] deals with LOX IMVI melanoma.
For test [3], the system named is HL-60(TB) leukemia.
The test system of test [4] is OVCAR-8 ovarian.
Test [5] has as its system 786-0 renal.
The test system of test [6] is LXFL 529 NSCLC.
The subject of test [7] is SF-295 CNS.
Test [8] deals with UO-31 renal.
Test [9] has as its system COLO 205 colon.
The test system of test [10] is NCI-H226 lung.
For test [11], the system named is IGROV1 ovarian.
The subject of test [12] is M14 melanoma.
The subject of test [13] is CAKI-1 renal.
The subject of test [14] is EKVX NSCLC.
Test [15] concerns SF-539 CNS.
Test [16] relates to KM12 colon.
Test [17] deals with BT-549 breast.
Test [18] relates to MCF7 breast.
In test [19] the test system is NCI/ADR-RES ovarian.
In test [20] the test system is HS 578T breast.

Each structure is given as a SMILES string.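 Following 48 hours of exposure in 96-well plates, responses at five concentrations were used to interpolate endpoints linearly. TGI is the concentration that stops growth completely.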

For the molecule `CCCCCCCCCCCCCCCCCC(=O)NCCCNCCCNC(=O)CCCCCCCCCCCCCCCCC`, the TGI in test [1], in [2], in [3], in test [4], in [5] and in test [6] was greater than 100 µM each time. The TGI in test [7], in [8], in test [9], in test [10], in test [11] and in [12] was greater than 100 µM throughout. In test [13], this molecule showed a TGI greater than 100 µM.

Consider `Cc1ccc2c(c1)NC(=O)C(N=[N+]=[N-])(c1ccccc1)C2=O` (stereo not drawn), for which the TGI in [1] was greater than 100 µM; in test [14], 95.3 µM; in test [2], 37.7 µM; in test [3], 37.5 µM; in test [4], 58.7 µM; in test [5] it was greater than 100 µM. Moreover, the TGI was 66.1 µM in test [6]; 78.1 µM in test [7]; 90.7 µM in test [8]; 27.1 µM in test [9]; 81.5 µM in [15]; greater than 100 µM in test [11]. Moreover, the TGI in test [16] amounted to 40 µM; in test [12], 33 µM; in test [13] it was 78.1 µM.

Regarding `COc1ccc(OC)c(CCc2cc(OC)c(OC)cc2C)c1`, the TGI in test [1] is greater than 100 µM; in test [14], greater than 100 µM; in [4], greater than 100 µM; in test [5], greater than 100 µM; in test [6] it was greater than 100 µM; in [7], 47.2 µM. Moreover, the TGI in test [8], in test [9], in test [11], in test [16], in [12] and in [13] was greater than 100 µM each time.

With `CCCCCN(CCCCC)C(=O)[C@@H](CCC(=O)OCc1ccccc1)NC(=O)c1cc2ccccc2[nH]1`, the TGI in [1], in test [14], in test [2], in test [4], in test [5] and in test [6] was greater than 100 µM throughout. Also, the TGI in [7], in test [8], in test [9], in [15], in test [11] and in test [16] was greater than 100 µM in each case. The TGI in test [12] and in [13] was greater than 100 µM each time.

Take `CCOc1ccc(N=Cc2cc(OC)c(OC)c(OC)c2)cc1`: the TGI in test [1], in test [14], in [2], in test [3], in test [4] and in [5] was greater than 100 µM in each case. Besides, the TGI in [6], in test [7], in test [8], in test [9], in test [15] and in test [11] was greater than 100 µM in each case. In addition, the TGI in test [16], in [12] and in test [13] was greater than 100 µM in each case.

Regarding `C[n+]1c2ccccc2c(NC(CCC(N)=O)C(=O)O)c2ccccc21` (stereo not drawn), the TGI in [14], in test [3], in [4], in test [5], in test [6] and in [7] was greater than 100 µM in each case. The TGI in [8], in test [9], in test [10], in test [15], in [11] and in [16] was greater than 100 µM in each case. The same molecule showed a TGI in test [12] greater than 100 µM.

Regarding `CN(C)CC1(C)CC/C(=C\c2ccc3c(c2)OCO3)C1=O` (stereo not drawn), the TGI in test [1], in test [2], in test [4], in test [5], in test [6] and in test [7] was greater than 100 µM throughout. The TGI in test [8], in test [9], in [10], in test [15], in test [11] and in test [16] was greater than 100 µM throughout. In addition, the TGI in [12] and in test [13] was greater than 100 µM throughout.

Regarding `CCN(CC)CC(C)(C)C(=O)/C=C/c1ccc(C)cc1`, the TGI amounted to 27.8 µM in test [1]; 16.9 µM in test [14]; 24.1 µM in test [2]; 31.4 µM in test [4]; 23.2 µM in [5]; 20.1 µM in test [6]. Further, the TGI in test [7] was 26.1 µM; in [8] it was 22.2 µM; in [15] it was 26.2 µM; in test [16] it was 19 µM; in [12], 25 µM; in test [13], 29.1 µM.

`CCOC(=O)Cn1nc2ccc(Nc3nc4ccccc4nc3C(=O)OCC)cc2n1`: the TGI in test [17], in test [1], in test [14], in [18], in test [2] and in test [3] was greater than 100 µM throughout. In addition, the TGI in test [4], in test [5], in test [19], in [7], in [8] and in test [9] was greater than 100 µM in each case. For the same molecule, the TGI in [10] was greater than 100 µM; in test [15] it was 52.8 µM; in test [11] it was greater than 100 µM; in test [20], greater than 100 µM; in test [16] it was greater than 100 µM; in [12], greater than 100 µM. The same molecule registered a TGI in [13] greater than 100 µM.

On to `C=CCCCC1(C)CCCCNC1=O` (stereo not drawn), for which the TGI in test [17], in [1], in test [14], in test [18], in [2] and in test [3] was greater than 10 µM throughout. The TGI in test [4], in test [5], in test [19], in test [7], in [8] and in test [9] was greater than 10 µM throughout. The TGI in test [10], in test [15], in [11], in test [20], in test [16] and in test [12] was greater than 10 µM throughout. The molecule further showed a TGI in test [13] greater than 10 µM.

For the molecule `Cc1ccc(S(=O)(=O)n2ccn3c(=O)cc(C)nc23)cc1`, the TGI in test [17], in test [1], in [14], in [18], in [2] and in test [3] was greater than 10 µM in each case. For the same molecule, the TGI in [4], in test [5], in test [19], in test [7], in test [8] and in test [9] was greater than 10 µM throughout. For the same molecule, the TGI in test [10], in [15], in [11], in test [20], in [16] and in test [12] was greater than 10 µM throughout. In addition, the TGI in test [13] is greater than 10 µM.

`Cc1cc(S(=O)(=O)Nc2nc(N)n(C)n2)c(S)cc1Cl`: the TGI in test [17], in [1], in test [14], in [18], in test [2] and in test [3] was greater than 10 µM in each case. Moreover, the TGI in test [4], in test [5], in test [19], in [7], in test [8] and in test [9] was greater than 10 µM in each case. In addition, the TGI in test [10], in test [15], in test [11], in test [20], in test [16] and in [12] was greater than 10 µM each time. The molecule also had a TGI in [13] greater than 10 µM.

In the case of `O=S(=O)(Nc1ccccc1S(=O)(=O)c1ccccc1)c1ccccc1`, the TGI in [17] was greater than 100 µM; in [1] it was greater than 100 µM; in test [14] it was 97 µM; in [18], greater than 100 µM; in [2], greater than 100 µM; in [3], greater than 100 µM. For the same molecule, the TGI in test [4], in test [5], in [19], in test [7], in test [8] and in test [9] was greater than 100 µM throughout. For the same molecule, the TGI in test [10], in test [15], in [11], in [20], in test [16] and in test [12] was greater than 100 µM in each case. In addition, in test [13], the TGI is greater than 100 µM.

As for `C/C=C/C=C/[C@H]1Cc2cc(O)cc(O)c2O1`, the TGI in test [1] was greater than 100 µM; in test [14], greater than 100 µM; in [2] it was greater than 100 µM; in test [3], 92.8 µM; in test [4] it was greater than 100 µM; in test [5] it was greater than 100 µM. In addition, the TGI in [6], in test [7], in test [8], in [9], in [15] and in test [11] was greater than 100 µM in each case. In addition, the TGI in [16], in test [12] and in test [13] was greater than 100 µM each time.
